Measured values as given in US9345247B2, “Azaindole carboxylic acid amides and azaindole thiocarboxylic acid amides for use as insecticides and acaricides” (BAYER CROPSCIENCE AG, priority 2012, dated 2016).

Assays:
Ctenocephalides felis = test: Ctenocephalides felis; oral (CTECFE); format: in vivo; settings: 100 ppm, oral in cattle blood, after 2 days
Method: Ctenocephalides felis; Oral (CTECFE)
To produce a suitable active compound formulation, 10 mg of active compound are mixed with 0.5 ml of dimethyl sulphoxide. A portion of the concentrate is diluted with citrated cattle blood, and the desired concentration is prepared.
About 20 unfed adult fleas (Ctenocephalides felis) are placed into a chamber which is closed at the top and bottom with gauze. A metal cylinder whose bottom end is closed with parafilm is placed onto the chamber. The cylinder contains the blood/active compound preparation, which can be imbibed by the fleas through the parafilm membrane.
After 2 days, the kill in % is determined 100% means that all fleas have been killed; 0% means that none of the fleas have been killed.

Lucilia cuprina larvae = test: Lucilia cuprina test (LUCICU); format: in vivo; settings: 100 ppm, after 2 days
Method: (§1) Lucilia cuprina Test (LUCICU) [table] To produce a suitable active compound formulation, 10 mg of active compound are mixed with 0.5 ml of dimethyl sulfoxide, and the concentrate is diluted with water to the desired concentration. Vessels containing horse meat treated with the active compound formulation of the desired concentration are populated with about 20 Lucilia cuprina larvae. After 2 days, the kill in % is determined 100% means that all the larvae have been killed; 0% means that none of the larvae have been killed.

[1] = system: green peach aphid (Myzus persicae); test: Myzus persicae spray test (MYZUPE); format: in vivo; settings: 100 g/ha, after 6 days
Method: Myzus persicae-Spray Test (MYZUPE) [table] To produce a suitable active compound formulation, 1 part by weight of active compound is mixed with the stated amounts of solvent and emulsifier, and the concentrate is diluted with emulsifier-containing water to the desired concentration. Discs of Chinese cabbage leaves (Brassica pekinensis) infested by all stages of the green peach aphid (Myzus persicae) are sprayed with an active compound formulation of the desired concentration. After 6 days, the efficacy in % is determined 100% means that all the aphids have been killed; 0% means that none of the aphids have been killed.

[2] = system: caterpillars of the armyworm (Spodoptera frugiperda); test: Spodoptera frugiperda spray test (SPODFR); format: in vivo; settings: 100 g/ha, spray, after 7 days
Method: Spodoptera frugiperda—Spray Test (SPODFR)
(§2) To produce a suitable active compound formulation, 1 part by weight of active compound is mixed with the stated amounts of solvent and emulsifier, and the concentrate is diluted with emulsifier-containing water to the desired concentration.
Leaf discs of maize (Zea mays) are sprayed with an active compound formulation of the desired concentration and, after drying, populated with caterpillars of the armyworm (Spodoptera frugiperda).
After 7 days, the efficacy in % is determined. 100% means that all the caterpillars have been killed; 0% means that no caterpillars have been killed.
To produce a suitable preparation of active compound, 1 part by weight of active compound is mixed with the stated amounts of solvent and emulsifier, and the concentrate is diluted with emulsifier-containing water to the desired concentration.
Leaf discs of maize (Zea mays) are sprayed with an active compound preparation of the desired concentration and, after drying, populated with caterpillars of the armyworm (Spodoptera frugiperda).
After the stated period of time, the effect in % is determined. 100% means that all the caterpillars have been killed; 0% means that no caterpillars have been killed.

Boophilus microplus = Boophilus microplus test (BOOPMI injection); format: in vivo; settings: 20 μg/animal, after 7 days
Method: Boophilus microplus Test (BOOPMI Injection) [table] To produce a suitable active compound formulation, 10 mg of active compound are mixed with 0.5 ml of solvent and the concentrate is diluted with solvent to the desired concentration. The active compound solution is injected into the abdomen (Boophilus microplus), and the animals are transferred into dishes and stored in a climate-controlled room. After 7 days, the efficacy in % is determined. The activity is assessed by laying of fertile eggs. 100% means that none of the ticks has laid any fertile eggs.

[3] = log P by HPLC on reversed-phase column (C18), EEC directive 79/831 Annex V.A8; format: physicochemical; settings: HPLC, acidic range pH 2.7, 43° C.
Procedure, shortened: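 log P determined per EEC directive 79/831 Annex V.A8 by reversed-phase C18 HPLC at 43 °C, calibrated with unbranched alkan-2-ones (C3–C16) of known log P. Acidic-range determination at pH 2.7 with 0.1% formic acid acetonitrile/water, linear 10–95% acetonitrile gradient.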

[4] = system: greenhouse red spider mite (Tetranychus urticae); test: Tetranychus urticae spray test, OP-resistant (TETRUR); format: in vivo; settings: 100 g/ha, spray, after 6 days
Method: as §2
Discs of bean leaves (Phaseolus vulgaris) infested by all stages of the greenhouse red spider mite (Tetranychus urticae) are sprayed with an active compound formulation of the desired concentration.
After 6 days, the efficacy in % is determined 100% means that all the spider mites have been killed; 0% means that none of the spider mites have been killed. […]

[5] = system: larvae of the mustard beetle (Phaedon cochleariae); test: Phaedon cochleariae spray test (PHAECO); format: in vivo; settings: 100 g/ha, spray, after 7 days
Procedure, shortened: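 Chinese cabbage (Brassica pekinensis) leaf discs sprayed with compound in emulsifier-containing water at the desired concentration, dried, then infested with larvae. Efficacy scored after 7 days as % larvae killed (100% = all dead, 0% = none).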

adult Musca domestica = test: Musca domestica test (MUSCDO); format: in vivo; settings: 100 ppm, after 2 days
Method: as §1, with “Musca domestica” for “Lucilia cuprina”, “(MUSCDO)” for “(LUCICU)”, “a sponge” for “horse meat”, “adult Musca domestica.” for “about 20 Lucilia cuprina larvae.”, “flies” for “the larvae”, “no flies” for “none of the larvae”

SMILES | efficacy (kill) (Ctenocephalides felis) [%] | efficacy (kill) (Lucilia cuprina larvae) [%] | efficacy [1] [%] | efficacy [2] [%] | efficacy (laying of fertile eggs) (Boophilus microplus) [%] | log p [3] | efficacy [4] [%] | efficacy [5] [%] | efficacy (kill) (adult Musca domestica) [%]
CCn1c(C(=O)NC(c2cccc(C(F)(F)F)c2)C(F)(F)F)cc2cc(C(=O)NC3(C#N)CC3)c(C)nc21 (stereo not drawn) [Compound 6] | 100 | 100 | 100 | 100 | 100 | 3.53 | 90 | 100 | 100
CCn1c(C(=O)NC(c2ccc(F)c(Cl)c2)C(F)(F)F)cc2cc(C(=O)NC3(C#N)CC3)c(C)nc21 (stereo not drawn) [Compound 10] | 100 | 100 | 90 | 100 | 100 | 3.51 | 100 | 100 | 100
